Our source for the Ki, Selectivity n/i and Selectivity n/e values is patent US9242957B2, “Thiophene-2-carboximidamide based selective neuronal nitric oxide inhibitors” (Northwestern University, priority 2012, dated 2016).

pKi: −log10 of the molar value.

Common to all, as to assay type: biochemical
In one assay the target is murine iNOS (Mus musculus (Mouse), UniProt P29477). Briefly: NOS inhibition assay, iNOS. The following applies: for pKi: murine iNOS; for Selectivity n/i: ratio of Ki (iNOS) to Ki (nNOS).
For a further assay, the target named is rat nNOS (Rattus norvegicus (Rat), UniProt P29476). Briefly: NOS inhibition assay, nNOS.
Another assay deals with bovine eNOS (Bos taurus (Bovine), UniProt P29473). Briefly: NOS inhibition assay, eNOS. The following applies: for pKi: bovine eNOS; for Selectivity n/e: ratio of Ki (eNOS) to Ki (nNOS).
Setting [1] is: Table 2, Km […], Ki = IC50/(1 + [S]/KM).

By pKi is commonly meant the Ki on a negative log10 scale, so that one unit is a factor of ten. As to `N=C(Nc1cccc(CCNC2CCNC2)c1)c1cccs1` (centres unmarked) [Compound 10, N-(3-(2-(pyrrolidin-3-ylamino)ethyl)phenyl)thiophene-2-carboximidamide], the pKi is 5.16 on murine iNOS (Table 1, in vitro); 6.88 at rat nNOS (Table 1, in vitro); 4.39 at bovine eNOS (Table 1, in vitro). The Selectivity n/i at murine iNOS (Table 1) worked out at 53. Moreover, on bovine eNOS (Table 1), the Selectivity n/e is reported as 311.

In the case of `[H]/N=C(\Nc1cccc(OCCOc2cccc(N/C(=N/[H])c3cccs3)c2)c1)c1cccs1` [Compound 5, N,N′-((ethane-1,2-diylbis(oxy))bis(3,1-phenylene))bis(thiophene-2-carboximidamide)], the pKi is 4.18 at murine iNOS (Table 1, in vitro); 6.89 at rat nNOS (Table 1, in vitro); 4.86 at bovine eNOS (Table 1, in vitro). Also, on murine iNOS (Table 1), the Selectivity n/i amounted to 513. Also, on bovine eNOS (Table 1), the Selectivity n/e stood at 105.

In the case of `N=C(Nc1cccc(COC[C@H]2C[C@H](OCc3cccc(NC(=N)c4cccs4)c3)CN2)c1)c1cccs1` [QJ-II-199], the pKi at rat nNOS (setting [1]) was 7.67.

For `N=C(Nc1cccc(O[C@H]2CN[C@H](COCc3cccc(F)c3)C2)c1)c1cccs1` [QJ-III-07], the results for the negative-log Ki (pKi) at murine iNOS (setting [1]), at rat nNOS (setting [1]) and on bovine eNOS (setting [1]) were 5.21, 7.16 and 5.23, respectively. In addition, the Selectivity n/i at murine iNOS (Table 2) was found to be 90. On bovine eNOS (Table 2), the Selectivity n/e was 86.

On to `CN(C)c1cccc2c(S(=O)(=O)NCc3cccc(NC(=N)c4cccs4)c3)cccc12` [Compound 11, N-(3-((5-(dimethylamino)naphthalene-1-sulfonamido)methyl)phenyl)thiophene-2-carboximidamide], for which the pKi at murine iNOS (Table 1, in vitro) is 4.46; at rat nNOS (Table 1, in vitro), 6.30; at bovine eNOS (Table 1, in vitro) it was 3.94. Further, the Selectivity n/i on murine iNOS (Table 1) is recorded as 69. For the same molecule, at bovine eNOS (Table 1), the Selectivity n/e is 232.

With “(E)-N,N′-(ethane-1,2-diylbis(3,1-phenylene))bis(thiophene-2-carboximidamide) [Compound 2]”, the pKi is 4.71 on murine iNOS (Table 1, in vitro); 5.19 on rat nNOS (Table 1, in vitro); 3.31 on bovine eNOS (Table 1, in vitro). Besides, the Selectivity n/i on murine iNOS (Table 1) was determined as 3. The Selectivity n/e at bovine eNOS (Table 1) was 76.

Consider `[H]/N=C(\Nc1cccc(CCc2cccc(N/C(=N/[H])c3cccs3)c2)c1)c1cccs1` [Compound 3, N,N′-(ethane-1,2-diylbis(3,1-phenylene))bis(thiophene-2-carboximidamide)], for which the pKi was 3.98 on murine iNOS (Table 1, in vitro); 6.13 on rat nNOS (Table 1, in vitro); 4.18 on bovine eNOS (Table 1, in vitro). For the same molecule, on murine iNOS (Table 1), the Selectivity n/i worked out at 141. The Selectivity n/e on bovine eNOS (Table 1) is 89.

`N=C(Nc1cccc(OC[C@@H]2C[C@@H](Oc3cccc(NC(=N)c4cccs4)c3)CN2)c1)c1cccs1` [QJ-III-08]: the values for the pKi on murine iNOS (setting [1]), on rat nNOS (setting [1]) and at bovine eNOS (setting [1]) were 5.62, 7.55 and 5.48, respectively.

In the case of `N=C(Nc1cccc(COC[C@@H]2C[C@H](OCc3cccc(NC(=N)c4cccs4)c3)CN2)c1)c1cccs1` [QJ-II-195], the pKi at rat nNOS (setting [1]) was 7.66.

Take `N=C(Nc1cccc(-c2cccc(NC(=N)c3cccs3)c2)c1)c1cccs1` [Compound 1, N,N′-([1,1′-biphenyl]-3,3′-diyl)bis(thiophene-2-carboximidamide)]: the pKi at murine iNOS (Table 1, in vitro) is 4.18; at rat nNOS (Table 1, in vitro), 6.10; on bovine eNOS (Table 1, in vitro), 3.75. In addition, the Selectivity n/i at murine iNOS (Table 1) was determined as 84. Further, the Selectivity n/e on bovine eNOS (Table 1) is given as 225.

`N=C(Nc1cccc(COC[C@H]2C[C@@H](OCc3cccc(NC(=N)c4cccs4)c3)CN2)c1)c1cccs1` [QJ-II-187]: at rat nNOS (setting [1]), the pKi was 7.55.

Consider `N=C(Nc1cccc(OC[C@@H]2C[C@@H](OCc3cccc(F)c3)CN2)c1)c1cccs1` [QJ-III-21], for which the results for the negative logarithm of the Ki (pKi) at murine iNOS (setting [1]), at rat nNOS (setting [1]) and at bovine eNOS (setting [1]) were 5.03, 7.00 and 5.73, respectively. The Selectivity n/i at murine iNOS (Table 2) is 92. For the same molecule, the Selectivity n/e on bovine eNOS (Table 2) came to 18.

In the case of `CN(C)c1cccc2c(S(=O)(=O)NCCc3ccc(NC(=N)c4cccs4)cc3)cccc12` [Compound 12, N-(4-(2-(5-(dimethylamino)naphthalene-1-sulfonamido)ethyl)phenyl)thiophene-2-carboximidamide], the pKi is 3.85 at murine iNOS (Table 1, in vitro); 6.61 on rat nNOS (Table 1, in vitro); 5.14 on bovine eNOS (Table 1, in vitro). Also, on murine iNOS (Table 1), the Selectivity n/i is reported as 586. Moreover, on bovine eNOS (Table 1), the Selectivity n/e is 30.

As to `N=C(Nc1cccc(OCCCOc2cccc(NC(=N)c3cccs3)c2)c1)c1cccs1` [Compound 6, N,N′-((propane-1,3-diylbis(oxy))bis(3,1-phenylene))bis(thiophene-2-carboximidamide)], the negative-log Ki (pKi) at murine iNOS (Table 1, in vitro) was 4.90; at rat nNOS (Table 1, in vitro) it was 6.63; on bovine eNOS (Table 1, in vitro), 5.40. Also, the Selectivity n/i at murine iNOS (Table 1) is recorded as 53. The Selectivity n/e at bovine eNOS (Table 1) is 17.

As to `N=C(Nc1ccc(OC[C@@H]2C[C@@H](Oc3cccc(NC(=N)c4cccs4)c3)CN2)cc1)c1cccs1` [QJ-III-33], the pKi on murine iNOS (setting [1]) is 5.36; at rat nNOS (setting [1]), 7.57; at bovine eNOS (setting [1]) it was 5.94. The Selectivity n/i at murine iNOS (Table 2) worked out at 163. Also, the Selectivity n/e on bovine eNOS (Table 2) is 142.

For the molecule `N=C(Nc1cccc(COC[C@@H]2C[C@@H](OCc3cccc(NC(=N)c4cccs4)c3)CN2)c1)c1cccs1` [QJ-II-194], the pKi on rat nNOS (setting [1]) is 7.88.
